From patent US20250382344A1, “Soluble GLP1/GIP/NPY2 Receptor Triple Agonists” (Boehringer Ingelheim International GmH, priority 2024, published 2025)
Read-outs that look alike come from different tables or passages of the source.

Assays:
[1] = Solubility in 0.1 M phosphate buffer at pH 7; assay type: physicochemical; details: 0.1 M phosphate buffer at pH 7, 10 mg/mL final peptide concentration, shaking 2 hours at room temperature, peptides as TFA-salts; measured sample pH 6.5-7.0
hGIPR = biological target: T1, hGIPR (Homo sapiens, UniProt P48546); assay: hGIPR CreLuc assay in 0.5% and 100% plasma (CHO CRE-luciferase reporter cells); assay type: cell-based
T1 construct: expressed in transfected cells; host or cells: CHO CRE-luciferase reporter cells
T1 sequence (P48546 22-466): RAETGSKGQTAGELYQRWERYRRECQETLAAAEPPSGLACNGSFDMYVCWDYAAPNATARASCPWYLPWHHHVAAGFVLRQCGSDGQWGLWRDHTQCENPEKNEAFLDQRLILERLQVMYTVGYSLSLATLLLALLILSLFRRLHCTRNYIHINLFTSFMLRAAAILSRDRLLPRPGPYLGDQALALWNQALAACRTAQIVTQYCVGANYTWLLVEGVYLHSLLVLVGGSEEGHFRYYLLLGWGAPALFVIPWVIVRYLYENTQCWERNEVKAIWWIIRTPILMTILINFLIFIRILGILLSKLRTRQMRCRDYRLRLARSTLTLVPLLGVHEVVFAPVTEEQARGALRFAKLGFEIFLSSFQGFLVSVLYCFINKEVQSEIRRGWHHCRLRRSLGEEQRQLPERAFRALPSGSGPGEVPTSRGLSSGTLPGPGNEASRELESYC

[2] = 0.5% human plasma, read-out: hGIPR 0.5% hP
[3] = 100% human plasma, read-out: hGIPR 100% hP

| solubility at 2 h [1] [mg/mL] | EC50 (hGIPR; [2]) [nM] | EC50 (hGIPR; [3]) [nM] | Structure (SMILES) | EC50 (hGIPR; hGIPR 0.5% hP (nM), 0.5% human plasma) [nM] |
| --- | --- | --- | --- | --- |
| 9.6 | 0.5 |  | CC[C@H](C)[C@H](NC(=O)[C@H](CC(C)C)NC(=O)[C@H](Cc1c[nH]cn1)NC(=O)[C@H](CCCNC(=N)N)NC(=O)[C@@H](NC(=O)[C@H](Cc1ccccc1)NC(=O)[C@H](C)NC(=O)C(C)(C)NC(=O)[C@H](CCC(N)=O)NC(=O)[C@H](C)NC(=O)[C@H](CCC(N)=O)NC(=O)[C@H](CCCCN)NC(=O)[C@H](CCC(=O)O)NC(=O)[C@H](CC(C)C)NC(=O)C(C)(C)NC(=O)[C@@H](NC(=O)[C@H](CO)NC(=O)[C@H](Cc1ccc(O)cc1)NC(=O)[C@H](CC(=O)O)NC(=O)[C@H](CO)NC(=O)[C@@H](NC(=O)[C@H](Cc1ccccc1)NC(=O)[C@@H](NC(=O)CNC(=O)[C@H](CCC(=O)O)NC(=O)C(C)(C)NC(=O)[C@@H](N)Cc1ccc(O)cc1)[C@@H](C)O)[C@@H](C)O)[C@@H](C)CC)C(C)C)C(=O)N[C@@H](CC(N)=O)C(=O)N[C@@H](CCCCNC(=O)CC[C@H](NC(=O)CC[C@H](NC(=O)COCCOCCNC(=O)CC[C@H](NC(=O)CC[C@H](NC(=O)CC[C@H](NC(=O)CC[C@H](NC(=O)CCCCCCCCCCCCCCCCCCC(=O)O)C(=O)O)C(=O)O)C(=O)O)C(=O)O)C(=O)O)C(=O)O)C(=O)NC(C)(C)C(=O)N[C@H](C(=O)N[C@@H](CCCNC(=N)N)C(=O)N[C@@H](CCC(N)=O)C(=O)N[C@@H](CCCNC(=N)N)C(=O)N[C@@H](Cc1ccc(O)cc1)C(N)=O)[C@@H](C)O [Compound 136, Y-Aib-E-G-T-F-T-S-D-Y-S-I-Aib-L-E-K-Q-A-Q-Aib-A-F-V-R-H-L-I-N-K(1,3)-Aib-T-R-Q-R-Y-NH2.C20DA-gGlu-gGlu-gGlu-gGlu-OEG-gGlu-gGlu(1,2)] |  |
| 4.3 | 0.5 | 11.5 | CC[C@H](C)[C@H](NC(=O)[C@H](CC(C)C)NC(=O)[C@H](Cc1c[nH]cn1)NC(=O)[C@H](CCCNC(=N)N)NC(=O)[C@@H](NC(=O)[C@H](Cc1ccccc1)NC(=O)[C@H](C)NC(=O)C(C)(C)NC(=O)[C@H](CCC(N)=O)NC(=O)[C@H](C)NC(=O)[C@H](CCC(N)=O)NC(=O)[C@H](CCCCN)NC(=O)[C@H](CCC(=O)O)NC(=O)[C@H](CC(C)C)NC(=O)C(C)(C)NC(=O)[C@@H](NC(=O)[C@H](CO)NC(=O)[C@H](Cc1ccc(O)cc1)NC(=O)[C@H](CC(=O)O)NC(=O)[C@H](CO)NC(=O)[C@@H](NC(=O)[C@H](Cc1ccccc1)NC(=O)[C@@H](NC(=O)CNC(=O)[C@H](CCC(=O)O)NC(=O)C(C)(C)NC(=O)[C@@H](N)Cc1ccc(O)cc1)[C@@H](C)O)[C@@H](C)O)[C@@H](C)CC)C(C)C)C(=O)N[C@@H](CC(N)=O)C(=O)N[C@@H](CCCCNC(=O)[C@@H](N)CCCCNC(=O)CC[C@H](NC(=O)CC[C@H](NC(=O)CC[C@H](NC(=O)CC[C@H](NC(=O)CC[C@H](NC(=O)CC[C@H](NC(=O)[C@H]1CC[C@H](CNC(=O)CCCCCCCCCCCCCCCCC(=O)O)CC1)C(=O)O)C(=O)O)C(=O)O)C(=O)O)C(=O)O)C(=O)O)C(=O)NC(C)(C)C(=O)N[C@H](C(=O)N[C@@H](CCCNC(=N)N)C(=O)N[C@@H](CCC(N)=O)C(=O)N[C@@H](CCCNC(=N)N)C(=O)N[C@@H](Cc1ccc(O)cc1)C(N)=O)[C@@H](C)O [Compound 137, Y-Aib-E-G-T-F-T-S-D-Y-S-I-Aib-L-E-K-Q-A-Q-Aib-A-F-V-R-H-L-I-N-K(1,3)-Aib-T-R-Q-R-Y-NH2.C18DA-TRX-gGlu-gGlu-gGlu-gGlu-gGlu-gGlu-eLys(1,2)] |  |
| 9.3 | 0.5 | 11.5 | CC[C@H](C)[C@H](NC(=O)[C@H](CC(C)C)NC(=O)[C@H](Cc1c[nH]cn1)NC(=O)[C@H](CCCNC(=N)N)NC(=O)[C@@H](NC(=O)[C@H](Cc1ccccc1)NC(=O)[C@H](C)NC(=O)C(C)(C)NC(=O)[C@H](CCC(N)=O)NC(=O)[C@H](C)NC(=O)[C@H](CCC(N)=O)NC(=O)[C@H](CCC(=O)O)NC(=O)[C@H](CC(=O)O)NC(=O)[C@H](CC(C)C)NC(=O)C(C)(C)NC(=O)[C@@H](NC(=O)[C@H](CO)NC(=O)[C@H](Cc1ccc(O)cc1)NC(=O)[C@H](CC(=O)O)NC(=O)[C@H](CO)NC(=O)[C@@H](NC(=O)[C@H](Cc1ccccc1)NC(=O)[C@@H](NC(=O)CNC(=O)[C@H](CCC(=O)O)NC(=O)C(C)(C)NC(=O)[C@@H](N)Cc1ccc(O)cc1)[C@@H](C)O)[C@@H](C)O)[C@@H](C)CC)C(C)C)C(=O)N[C@@H](CC(N)=O)C(=O)N[C@@H](CCCCNC(=O)[C@@H](N)CCCCNC(=O)CC[C@H](NC(=O)CC[C@H](NC(=O)CC[C@H](NC(=O)CC[C@H](NC(=O)CC[C@H](NC(=O)CCCCCCCCCCCCCCCCCCC(=O)O)C(=O)O)C(=O)O)C(=O)O)C(=O)O)C(=O)O)C(=O)NC(C)(C)C(=O)N[C@H](C(=O)N[C@@H](CCCNC(=N)N)C(=O)N[C@@H](CCC(N)=O)C(=O)N[C@@H](CCCNC(=N)N)C(=O)N[C@@H](Cc1ccc(O)cc1)C(N)=O)[C@@H](C)O [Compound 138, Y-Aib-E-G-T-F-T-S-D-Y-S-I-Aib-L-D-E-Q-A-Q-Aib-A-F-V-R-H-L-I-N-K(1,3)-Aib-T-R-Q-R-Y-NH2.C20DA-gGlu-gGlu-gGlu-gGlu-gGlu-eLys(1,2)] |  |
| 4.3 | 0.4 |  | CC[C@H](C)[C@H](NC(=O)[C@H](CC(C)C)NC(=O)[C@H](Cc1c[nH]cn1)NC(=O)[C@H](CCCNC(=N)N)NC(=O)[C@@H](NC(=O)[C@H](Cc1ccccc1)NC(=O)[C@H](CO)NC(=O)C(C)(C)NC(=O)[C@H](CCC(N)=O)NC(=O)[C@H](C)NC(=O)[C@H](CCC(N)=O)NC(=O)[C@H](CCCCN)NC(=O)[C@H](CCC(=O)O)NC(=O)[C@H](CC(C)C)NC(=O)C(C)(C)NC(=O)[C@@H](NC(=O)[C@H](CO)NC(=O)[C@H](Cc1ccc(O)cc1)NC(=O)[C@H](CC(=O)O)NC(=O)[C@H](CO)NC(=O)[C@@H](NC(=O)[C@H](Cc1ccccc1)NC(=O)[C@@H](NC(=O)CNC(=O)[C@H](CCC(=O)O)NC(=O)C(C)(C)NC(=O)[C@@H](N)Cc1ccc(O)cc1)[C@@H](C)O)[C@@H](C)O)[C@@H](C)CC)C(C)C)C(=O)N[C@@H](CC(N)=O)C(=O)N[C@@H](CCCCNC(=O)[C@@H](N)CCCCNC(=O)CC[C@H](NC(=O)CC[C@H](NC(=O)CC[C@H](NC(=O)CC[C@H](NC(=O)CC[C@H](NC(=O)CC[C@H](NC(=O)CCCCCCCCCCCCCCCCC(=O)O)C(=O)O)C(=O)O)C(=O)O)C(=O)O)C(=O)O)C(=O)O)C(=O)NC(C)(C)C(=O)N[C@H](C(=O)N[C@@H](CCCNC(=N)N)C(=O)N[C@@H](CCC(N)=O)C(=O)N[C@@H](CCCNC(=N)N)C(=O)N[C@@H](Cc1ccc(O)cc1)C(N)=O)[C@@H](C)O [Compound 144, Y-Aib-E-G-T-F-T-S-D-Y-S-I-Aib-L-E-K-Q-A-Q-Aib-S-F-V-R-H-L-I-N-K(1,3)-Aib-T-R-Q-R-Y-NH2.C18DA-gGlu-gGlu-gGlu-gGlu-gGlu-gGlu-eLys(1,2)] |  |

| Structure (SMILES) | solubility at 2 h [1] [mg/mL] | EC50 (hGIPR; [2]) [nM] | EC50 (hGIPR; [3]) [nM] | EC50 (hGIPR; hGIPR 0.5% hP (nM), 0.5% human plasma) [nM] |
| --- | --- | --- | --- | --- |
| CC[C@H](C)[C@H](NC(=O)[C@H](CC(C)C)NC(=O)[C@H](Cc1c[nH]cn1)NC(=O)[C@H](CCCNC(=N)N)NC(=O)[C@@H](NC(=O)[C@H](Cc1ccccc1)NC(=O)[C@H](C)NC(=O)C(C)(C)NC(=O)[C@H](CCC(N)=O)NC(=O)[C@H](C)NC(=O)[C@H](CCC(N)=O)NC(=O)[C@H](CCCCN)NC(=O)[C@H](CCC(=O)O)NC(=O)[C@H](CC(C)C)NC(=O)C(C)(C)NC(=O)[C@@H](NC(=O)[C@H](CO)NC(=O)[C@H](CC(C)C)NC(=O)[C@H](CC(=O)O)NC(=O)[C@H](CO)NC(=O)[C@@H](NC(=O)[C@H](Cc1ccccc1)NC(=O)[C@@H](NC(=O)CNC(=O)[C@H](CCC(=O)O)NC(=O)C(C)(C)NC(=O)[C@@H](N)Cc1ccc(O)cc1)[C@@H](C)O)[C@@H](C)O)[C@@H](C)CC)C(C)C)C(=O)N[C@@H](CC(N)=O)C(=O)N[C@@H](CCCCNC(=O)[C@@H](N)CCCCNC(=O)CC[C@H](NC(=O)CC[C@H](NC(=O)CC[C@H](NC(=O)CC[C@H](NC(=O)CC[C@H](NC(=O)CC[C@H](NC(=O)CC[C@H](NC(=O)CCCCCCCCCCCCCCCCCCC(=O)O)C(=O)O)C(=O)O)C(=O)O)C(=O)O)C(=O)O)C(=O)O)C(=O)O)C(=O)NC(C)(C)C(=O)N[C@H](C(=O)N[C@@H](CCCNC(=N)N)C(=O)N[C@@H](CCC(N)=O)C(=O)N[C@@H](CCCNC(=N)N)C(=O)N[C@@H](Cc1ccc(O)cc1)C(N)=O)[C@@H](C)O [Compound 135, Y-Aib-E-G-T-F-T-S-D-L-S-I-Aib-L-E-K-Q-A-Q-Aib-A-F-V-R-H-L-I-N-K(1,3)-Aib-T-R-Q-R-Y-NH2.C20DA-gGlu-gGlu-gGlu-gGlu-gGlu-gGlu-gGlu-eLys(1,2)] | 9.2 |  |  | 0.5 |
